Consider 10 molecules from patent publication US10513513B2, “Salts of quinazoline derivative or crystals thereof, and the process for producing thereof” (Shionogi & Co., Ltd., priority 2015, dated 2019).

Assay type in all cases: physicochemical
A short description of data set [1]: Stability test of crystals on heating (NMR before/after). The following applies: heated at 50° C. for 8 hours. How it is done: (Results of Stability Test)
The crystals of Compound (IIA) obtained in Example 21 were heated at 50° C. for 8 hours and measured NMR data.

A short description of data set [2]: Observation of hygroscopicity of isolated salt. The following applies: isolated solid. How it is done: Ethyl acetate (8 mL) was added to Compound 3 (4.12 g, 17.7 mmol), and the mixture was stirred. When 4 mol/L a solution (16 mL) of hydrochloric acid in ethyl acetate was added, white solids were precipitated. Ethyl acetate (8 mL) was added, and then the mixture was stirred for about 4 hours at room temperature.
Benzenesulfonic acid (78.57 mg) and tetrahydrofuran (0.2 mL) were stirred at 50° C., and a tetrahydrofuran (0.2 mL) solution of Compound 3 (51.54 mg, 0.222 mmol) was added dropwise. After about 20 minutes, cooling the mixture to room temperature caused solids to precipitate. Then, 0.15 mL of tetrahydrofuran was added, and the mixture was stirred at 50° C. for 10 minutes and cooled to 10° C.

Data set [3] in a line: Moisture sorption-desorption isothermal measurement. The following applies: for Ratio of increased mass in moisture desorption isothermal measurement: ratio at 0% Target % P/P0 after desorption, 25° C.; for Ratio of increased mass (moisture sorption): mass increase at 95% Target % P/P0 relative to mass at 0% Target % P/P0, 25° C. An excerpt: (Moisture Sorption-Desorption Isothermal Measurement)
Moisture sorption-desorption isothermal measurement is measuring the weight changes of a subject solid under various relative humidity conditions, and is a method for determining moisture sorption-desorption behaviors.
As a basic measurement method, the relative humidity is increased in increments of 5% or 10% based on the dry weight at 0% Target % P/P0 (relative humidity 0%), and after the weights at respective relative humidities are stabilized, the amount of adsorbed water can be obtained from the weight increased from a reference value. Similarly, it is possible to measure the amount of desorbed water by reducing the relative humidity in increments of 5% or 10% from 100% Target % P/P0.
Sorption and desorption isotherms can be obtained by plotting the weight change values at respective relative humidities. From the results, it is possible to investigate the sorption and desorption phenomena of attached moisture at respective humidities. Also, when anhydride crystals and hydrate crystals undergo mutual crystal transition due to humidity, it is possible to calculate the humidity, at which crystal transition occurs, and the amount of water of crystallization.
Since the sorption and desorption of attached water and water of crystallization are affected by the particle size, degree of crystallinity, crystal habit, and the like, the measurement results may slightly vary.
Moisture sorption-desorption isothermal measurement was performed on the crystals obtained in each Example. About 10 mg of a sample was weighed onto a sample pan, and measurement was performed. Measurement conditions are as shown below.
Device: DVS Advantage by Surface Measurement Systems Ltd.
Measurement points: from 0% Target % P/P0 to 95% Target % P/P0 in increments of 5%, then from 95% Target % P/P0 to 0% Target % P/P0 in decrements of 5% Temperature: 25° C. […]

Data set [4] in a line: Test of solubility in organic solvent. The conditions noted are these: stirred at 22° C. for 4 hours, supernatant, HPLC Method B; for Concentration (% by weight) in 2-Propanol: suspended in 2-propanol; for Concentration (% by weight) in Acetone: suspended in acetone; for Concentration (% by weight) in Ethyl acetate: suspended in ethyl acetate. How it is done: (Test of Solubility in Organic Solvent)
The monohydrochloride crystal Form I, monohydrochloride crystal Form V, and free base crystals of Compound (I) were each suspended in 2-propanol, acetone, and ethyl acetate, and stirred at 22° C. for 4 hours, and the concentrations of supernatants were measured (HPLC: Method B).

Data set [5] is described as follows: Light exposure test (photostability). The conditions noted are these: for E isomer (Retention time 38 minutes), Light exposed sample: D65 lamp, total illuminance about 1.2 million lx·hr; for E isomer (Retention time 38 minutes), Light exposed sample / E isomer (Retention time 38 minutes), Dark control: HPLC Method B; for E isomer (Retention time 38 minutes), Increased amount: light exposed sample minus dark control. The source says:
The photostability test is one of the methods for measuring chemical or physicochemical changes of an active pharmaceutical ingredient or a pharmaceutical preparation caused by light exposure to evaluate properties of a sample with respect to light. In the photostability test, a sample such as an active pharmaceutical ingredient or a pharmaceutical preparation is irradiated with light at a specified output for a certain period of time. Properties of the sample with respect to light can be evaluated by analyzing the impurities and analogous substances, crystal form, color difference, and the like of the sample by scientific techniques (such as high performance liquid chromatography, X-ray crystal diffraction, and colorimetry) when a specified total illuminance is reached. In order to verify that a specified amount of light exposure is attained, the amount of light exposure is managed using a radiometer or a luminometer, and a test is carried out using an actinometric system.
(Photostability Measurement)
A photostability test was performed using a photostability tester (model LTL200A5-15WCD) by Nagano Science. A D65 lamp was used as an irradiation source of light, and light was irradiated to a total illuminance of about 1.2 million 1×·hr under 4000 lx·hr conditions.
The quality evaluations of the respective crystals were carried out using HPLC (Method B).

Data set [6] is described as follows: Test of solubility in water for injection. The following applies: stirred at 37° C. for 1 hour, HPLC Method A. How it is done: (Test of Solubility in Water for Injection)
1. Preparation of Calibration Curve
First, 5 mg of monohydrochloride crystal Form I of Compound (I) was precisely weighed and dissolved in a mixed solution of acetonitrile:water (1:1), and thus a 500 μg/mL solution was obtained. The obtained solution was diluted with a mixed solution of acetonitrile:water (1:1) such that the concentrations of the compound were 5 and 50 μg/mL. Accordingly, a standard calibration curve was prepared according to HPLC measurement conditions (Method A). The same operation was carried out for monohydrochloride crystal Form II, monohydrochloride crystal Form V, monohydrochloride crystal Form VI, mono-p-toluenesulfonate crystal Form I, and free base crystals.
2. Preparation of Sample Solution
First, 1 mg of monohydrochloride crystal Form I of Compound (I) was precisely weighed and transferred to a vial having a volume of 4 mL. Then, 1 mL of water (water for injection) was added, and the mixture was stirred at 37° C. for 1 hour. After being stirred, this suspension was filtered, and the peak area was measured under HPLC measurement conditions (Method A) using a solution obtained by diluting the filtrate two-fold with a mixed solution of acetonitrile:water (1:1) as a sample. The concentration was calculated using the peak area and the calibration curve prepared above. The same operation was carried out for monohydrochloride crystal Form II, monohydrochloride crystal Form V, monohydrochloride crystal Form VI, mono-p-toluenesulfonate crystal Form I, and free base crystals.

The mark [7] stands for this setting: listed as mono-p-toluenesulfonate crystal Form I.
Setting [8] is: listed as Monohydrochloride form crystal VI.
The mark [9] stands for this setting: listed as Monohydrochloride form crystal V.

Structures are written as SMILES. Structures can show the parent of a compound that is named as a salt.

Turning to `NOC[C@H]1COCCN1` [Compound (IIA)], the “Stability of crystals on heating (change of NMR peaks)” value in data set [1] was “no changes to the peaks were observed”.

Turning to `NOC[C@H]1COCCN1` [Compound (II′)], the “Hygroscopicity (observation)” value in data set [2] was “absorbed moisture and deliquesced”.

As for `NOC[C@H]1COCCN1` [Compound (II″)], in data set [2], the “Hygroscopicity (observation)” value was “highly hygroscopic”.

As for `CC#C/C(=N\OC[C@H]1COCCN1)c1ccc2ncnc(Nc3ccc(OCc4cccc(F)c4)c(Cl)c3)c2c1` [Free base crystal], the “Ratio of increased mass in moisture desorption isothermal measurement” value in data set [3] was “about 0.16%”. In data set [4], the “Concentration (% by weight) in 2-Propanol” value came out at 0.49 % by weight, the “Concentration (% by weight) in Acetone” value amounted to 8.1 % by weight and the “Concentration (% by weight) in Ethyl acetate” value is reported as 3.3 % by weight. For the same molecule, in data set [5], the “E isomer (Retention time 38 minutes), Light exposed sample” value (“E isomer … Light exposed sample” for short) came to 2.59 area % and the “E isomer (Retention time 38 minutes), Increased amount” value (from here on “E isomer … Increased amount”) was 2.59 area %. Also, the “Solubility in water for injection” value in data set [6] (listed as free base crystals) is “not dissolved in water for injection at all”.

As to `CC#C/C(=N\OC[C@H]1COCCN1)c1ccc2ncnc(Nc3ccc(OCc4cccc(F)c4)c(Cl)c3)c2c1` [Mono-p-toluenesulfonate crystal Form I], in data set [3], the “Ratio of increased mass (moisture sorption)” value is listed as “small” and the “Ratio of increased mass in moisture desorption isothermal measurement” value was “about 0.12%”. In addition, in data set [5], the “E isomer … Light exposed sample” value is on record as 32.86 area %; the “E isomer (Retention time 38 minutes), Dark control” value (from here on “E isomer … Dark control”) stood at 0.10 area %; the “E isomer … Increased amount” value stood at 32.76 area %. For the same molecule, in data set [5] (setting [7]), the “E isomer … Increased amount” value is “about 33 area %”. In data set [6], the “Solubility in water for injection” value was 26.6 µg/mL. Also, in data set [6] (setting [7]), the “Solubility in water for injection” value is “high solubilities”.

For the molecule `CC#C/C(=N\OC[C@H]1COCCN1)c1ccc2ncnc(Nc3ccc(OCc4cccc(F)c4)c(Cl)c3)c2c1` [Monohydrochloride crystal Form II], in data set [3], the “Ratio of increased mass (moisture sorption)” value is on record as “small” and the “Ratio of increased mass in moisture desorption isothermal measurement” value is on record as “about 0.05%”. In addition, in data set [5], the “E isomer … Light exposed sample” value is given as 1.21 area %; the “E isomer … Dark control” value amounted to 1.44 area %; the “E isomer … Increased amount” value was −0.23 area %. For the same molecule, in data set [6], the “Solubility in water for injection” value stood at 56.0 µg/mL. Further, the “Solubility in water for injection” value in data set [6] (listed as monohydrochloride crystal Form II) is reported as “high solubilities”.

On to `CC#C/C(=N\OC[C@H]1COCCN1)c1ccc2ncnc(Nc3ccc(OCc4cccc(F)c4)c(Cl)c3)c2c1` [Monohydrochloride crystal Form I], for which, in data set [3], the “Ratio of increased mass (moisture sorption)” value is on record as “small” and the “Ratio of increased mass in moisture desorption isothermal measurement” value is “about 0.08%”. Moreover, in data set [4], the “Concentration (% by weight) in 2-Propanol” value is given as 0.03 % by weight, the “Concentration (% by weight) in Acetone” value stood at 0.08 % by weight and the “Concentration (% by weight) in Ethyl acetate” value came out at 0.01 % by weight. In addition, in data set [5], the “E isomer … Light exposed sample” value is reported as 4.41 area %; the “E isomer … Dark control” value was 0.63 area %; the “E isomer … Increased amount” value amounted to 3.78 area %. Besides, the “Solubility in water for injection” value in data set [6] was determined as 34.5 µg/mL. Further, the “Solubility in water for injection” value in data set [6] (listed as monohydrochloride crystal Form I) is “high solubilities”.

Consider `CC#C/C(=N\OC[C@H]1COCCN1)c1ccc2ncnc(Nc3ccc(OCc4cccc(F)c4)c(Cl)c3)c2c1` [Monohydrochloride crystal Form VI], for which, in data set [3], the “Ratio of increased mass (moisture sorption)” value was “small” and the “Ratio of increased mass in moisture desorption isothermal measurement” value is on record as “about 0.06%”. In data set [5] (setting [8]), the “E isomer … Light exposed sample” value came out at 1.80 area %; the “E isomer … Dark control” value is on record as 1.16 area %; the “E isomer … Increased amount” value came to 0.64 area %. Also, the “Solubility in water for injection” value in data set [6] stood at 12.9 µg/mL. Besides, the “Solubility in water for injection” value in data set [6] (listed as monohydrochloride crystal Form VI) was “high solubilities”.

As to `CC#C/C(=N\OC[C@H]1COCCN1)c1ccc2ncnc(Nc3ccc(OCc4cccc(F)c4)c(Cl)c3)c2c1` [Monohydrochloride crystal Form V], in data set [3], the “Ratio of increased mass (moisture sorption)” value is reported as “small” and the “Ratio of increased mass in moisture desorption isothermal measurement” value is recorded as “about 0.05%”. For the same molecule, in data set [4], the “Concentration (% by weight) in 2-Propanol” value is given as 0.01 % by weight, the “Concentration (% by weight) in Acetone” value is given as 0.02 % by weight and the “Concentration (% by weight) in Ethyl acetate” value is listed as 0.00 % by weight. Moreover, in data set [5] (setting [9]), the “E isomer … Light exposed sample” value is 1.19 area %; the “E isomer … Dark control” value is listed as 0.13 area %; the “E isomer … Increased amount” value stood at 1.06 area %. Further, the “Solubility in water for injection” value in data set [6] is 14.0 µg/mL. Also, the “Solubility in water for injection” value in data set [6] (listed as monohydrochloride crystal Form V) is given as “high solubilities”.

Consider `CC#C/C(=N\OC[C@H]1COCCN1)c1ccc2ncnc(Nc3ccc(OCc4cccc(F)c4)c(Cl)c3)c2c1` [Monosulfate crystal], for which the “Ratio of increased mass (moisture sorption)” value in data set [3] (listed as monosulfate crystals) is “about 3.3%”. Moreover, in data set [3], the “Ratio of increased mass in moisture desorption isothermal measurement” value is on record as “about 0.13%”.
